The target of assay [1] is T1, Endoribonuclease toxin MazF (Escherichia coli K-12, UniProt P0AE70).
T1 sequence (P0AE70 whole entry): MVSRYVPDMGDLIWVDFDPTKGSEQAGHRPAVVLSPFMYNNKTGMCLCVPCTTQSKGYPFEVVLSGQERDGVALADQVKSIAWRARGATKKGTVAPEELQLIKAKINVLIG
Briefly: MazF toxin RNase activators, dose response, biochemical, fluorescence, single-stranded RNA substrate, uHTS hits (AID 588481). It counts as functional.

The target of assay [2] is T1, Endoribonuclease toxin MazF. The assay can be described thus: fluorescent RNA oligo signal without MazF, dose response, counter-screen for MazEF activator project, biochemical, fluorescence, single-stranded RNase substrate (AID 588502). It counts as functional. For orientation: The purpose of a counterscreen is to sort out artefacts and off-target activity.
For assay [3], the system named is MEF. Briefly: SAR analysis of small molecule cytotoxicity of MazEF TA System activators in embryonic fibroblast (MEF) cells. [Related pubchem assays (depositor defined):AID504720, AID504743]. The class given is functional. To be noted: Mus musculus.
Assay [4] deals with T1, Endoribonuclease toxin MazF. The assay can be described thus: MazF endoribonuclease activators, SAR follow-up, biochemical, fluorescence, single-stranded RNA substrate (AID 588603). It counts as functional.
For assay [5] the target is unchanged. Briefly: SAR analysis of small molecule activators of the MazEF TA System via a fluorescence-based single-stranded RNase assay counterscreen. [Related pubchem assays (depositor defined):AID504720, AID504743]. The class given is functional.
Assay [6] deals with Beta-galactosidase (Escherichia coli, UniProt Q8VNN2). Briefly: PubChem AID 485352. The class given is functional.
Assay [7] has as its target Type-1 angiotensin II receptor (Homo sapiens, UniProt P30556). The assay can be described thus: AT1 receptor antagonists, dose response, selectivity assay for APJ receptor antagonist project, cell-based, uHTS hits (AID 463214).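 Further: antagonist potency against angiotensin II stimulated AT1 response.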 The class given is functional.
The nature of assay [8]: microbe, parasite or virus in culture. The class given is functional. To be noted: Mycobacterium tuberculosis.
Assay [9] addresses Phospholipase D1 (Homo sapiens, UniProt Q13393). Briefly: PLD1 inhibitor potency in cells, dose response (AID 602151).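 Further: cellular PLD1 assay in Calu-1 cells stimulated with PMA.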 The class given is functional.
The target in assay [10] is Phospholipase D2 (Homo sapiens, UniProt O14939). Briefly: PLD2 inhibitor potency in cells, dose response (AID 602147).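 Further: cellular assay in HEK293 cells overexpressing GFP-tagged PLD2.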 The class given is functional.
A short description of assay [11]: inhibitors of SNCA 5'UTR-driven reporter translation, confirmation, H4 neuroglioma cells, luminescence (AID 1988). It counts as functional, cell-based.
Assay [12] in a line: inhibitors of SNCA 5'UTR-driven translation, confirmation, luminescence, H4 neuroglioblastoma cells, dose confirmation (AID 2454).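 Further: H4 neuroglioblastoma cells carrying an alpha-synuclein 5'UTR luciferase reporter; potency for inhibition of the luciferase signal.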 It counts as functional, cell-based.
Assay [13] in a line: luciferase reporter signal reduction – luminescence, H4-C neuroglioblastoma cells, dose response (AID 2458).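 Further: H4 neuroglioblastoma cells stably carrying a luciferase reporter gene fusion.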 The class given is functional, cell-based. (In general: A reporter such as luciferase makes a cellular process visible.)
Assay [14] is described as follows: cytotoxicity toward DRD oncogenic fibroblasts, dose response, cell-based, non-viral oncogenic, luminescence (AID 1934). The class given is functional. To be noted: Homo sapiens.
Assay [15] is described as follows: inhibitors of firefly luciferase expression or activity, dose response, H4 neuroglioma cells, luminescence (AID 1990). It counts as functional, cell-based.
The subject of assay [16] is BJ. The assay can be described thus: cytotoxicity toward Ras-transformed BJeLR fibroblasts, dose response, cell-based, alamar blue fluorescence, cherrypicked samples (AID 2631).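 Further: confirmatory dose-response assay in RAS-dependent BJ fibroblasts engineered with TERT, LT and ST, with cytotoxicity read by fluorescence.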 The class given is functional. To be noted: Homo sapiens. (In general: Resazurin is reduced to fluorescent resorufin, in cell work by metabolically active cells.)
Assay [17] can be described thus: cells. It counts as functional, cell-based.
The nature of assay [18]: Luminescence Cell-Based Dose Response HTS to Identify Inhibitors of 5'UTR Stem-Loop Driven Prion Protein mRNA Translation in H4 Neuroglioblastoma Cells. [Related pubchem assays: 1827 (Project Summary), 1813 (Primary HTS)]. It counts as functional.
Assay [19] addresses Paired box protein Pax-8 (Homo sapiens, UniProt Q06710). Briefly: inhibitors of PAX8-driven TPO luciferase reporter, dose response, RMG-I cells, cherry-pick (AID 687027).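 Further: luciferase reporter driven by Pax8 target thyroperoxidase promoter measured by SteadyGlo luminescence.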 It counts as functional, cell-based.
Assay [20] is described as follows: non-specific cell cytotoxicity, dose response, cytotoxicity control for PAX8 inhibitor project, plate reader, dry powder samples (AID 743021). The class given is functional, cell-based.
Assay [21] deals with BJ. The assay can be described thus: cells. To be noted: Homo sapiens. The class given is functional, cell-based.
Assay [22] concerns the target SUMO E1/E2 (Homo sapiens, UniProt P63279+Q9UBE0+Q9UBT2). Briefly: SAR analysis of SUMOylation using HTRF in an in-Vitro dose response assay. [Related pubchem assays (depositor defined):AID2006, AID2011, AID2018, AID2069, AID2658]. It counts as functional.
Assay [23] deals with T2, Voltage-gated N-type calcium channel alpha-1B subunit/Amyloid beta A4 precursor protein-binding family A member 1 (Homo sapiens, UniProt Q00975+Q02410). Briefly: disruptors of Mint-PDZ/N-type channel peptide interaction – biochemical, HTRF, set 2, SAR follow-up (AID 434980). It counts as functional.
T2 sequence (Q00975 whole entry): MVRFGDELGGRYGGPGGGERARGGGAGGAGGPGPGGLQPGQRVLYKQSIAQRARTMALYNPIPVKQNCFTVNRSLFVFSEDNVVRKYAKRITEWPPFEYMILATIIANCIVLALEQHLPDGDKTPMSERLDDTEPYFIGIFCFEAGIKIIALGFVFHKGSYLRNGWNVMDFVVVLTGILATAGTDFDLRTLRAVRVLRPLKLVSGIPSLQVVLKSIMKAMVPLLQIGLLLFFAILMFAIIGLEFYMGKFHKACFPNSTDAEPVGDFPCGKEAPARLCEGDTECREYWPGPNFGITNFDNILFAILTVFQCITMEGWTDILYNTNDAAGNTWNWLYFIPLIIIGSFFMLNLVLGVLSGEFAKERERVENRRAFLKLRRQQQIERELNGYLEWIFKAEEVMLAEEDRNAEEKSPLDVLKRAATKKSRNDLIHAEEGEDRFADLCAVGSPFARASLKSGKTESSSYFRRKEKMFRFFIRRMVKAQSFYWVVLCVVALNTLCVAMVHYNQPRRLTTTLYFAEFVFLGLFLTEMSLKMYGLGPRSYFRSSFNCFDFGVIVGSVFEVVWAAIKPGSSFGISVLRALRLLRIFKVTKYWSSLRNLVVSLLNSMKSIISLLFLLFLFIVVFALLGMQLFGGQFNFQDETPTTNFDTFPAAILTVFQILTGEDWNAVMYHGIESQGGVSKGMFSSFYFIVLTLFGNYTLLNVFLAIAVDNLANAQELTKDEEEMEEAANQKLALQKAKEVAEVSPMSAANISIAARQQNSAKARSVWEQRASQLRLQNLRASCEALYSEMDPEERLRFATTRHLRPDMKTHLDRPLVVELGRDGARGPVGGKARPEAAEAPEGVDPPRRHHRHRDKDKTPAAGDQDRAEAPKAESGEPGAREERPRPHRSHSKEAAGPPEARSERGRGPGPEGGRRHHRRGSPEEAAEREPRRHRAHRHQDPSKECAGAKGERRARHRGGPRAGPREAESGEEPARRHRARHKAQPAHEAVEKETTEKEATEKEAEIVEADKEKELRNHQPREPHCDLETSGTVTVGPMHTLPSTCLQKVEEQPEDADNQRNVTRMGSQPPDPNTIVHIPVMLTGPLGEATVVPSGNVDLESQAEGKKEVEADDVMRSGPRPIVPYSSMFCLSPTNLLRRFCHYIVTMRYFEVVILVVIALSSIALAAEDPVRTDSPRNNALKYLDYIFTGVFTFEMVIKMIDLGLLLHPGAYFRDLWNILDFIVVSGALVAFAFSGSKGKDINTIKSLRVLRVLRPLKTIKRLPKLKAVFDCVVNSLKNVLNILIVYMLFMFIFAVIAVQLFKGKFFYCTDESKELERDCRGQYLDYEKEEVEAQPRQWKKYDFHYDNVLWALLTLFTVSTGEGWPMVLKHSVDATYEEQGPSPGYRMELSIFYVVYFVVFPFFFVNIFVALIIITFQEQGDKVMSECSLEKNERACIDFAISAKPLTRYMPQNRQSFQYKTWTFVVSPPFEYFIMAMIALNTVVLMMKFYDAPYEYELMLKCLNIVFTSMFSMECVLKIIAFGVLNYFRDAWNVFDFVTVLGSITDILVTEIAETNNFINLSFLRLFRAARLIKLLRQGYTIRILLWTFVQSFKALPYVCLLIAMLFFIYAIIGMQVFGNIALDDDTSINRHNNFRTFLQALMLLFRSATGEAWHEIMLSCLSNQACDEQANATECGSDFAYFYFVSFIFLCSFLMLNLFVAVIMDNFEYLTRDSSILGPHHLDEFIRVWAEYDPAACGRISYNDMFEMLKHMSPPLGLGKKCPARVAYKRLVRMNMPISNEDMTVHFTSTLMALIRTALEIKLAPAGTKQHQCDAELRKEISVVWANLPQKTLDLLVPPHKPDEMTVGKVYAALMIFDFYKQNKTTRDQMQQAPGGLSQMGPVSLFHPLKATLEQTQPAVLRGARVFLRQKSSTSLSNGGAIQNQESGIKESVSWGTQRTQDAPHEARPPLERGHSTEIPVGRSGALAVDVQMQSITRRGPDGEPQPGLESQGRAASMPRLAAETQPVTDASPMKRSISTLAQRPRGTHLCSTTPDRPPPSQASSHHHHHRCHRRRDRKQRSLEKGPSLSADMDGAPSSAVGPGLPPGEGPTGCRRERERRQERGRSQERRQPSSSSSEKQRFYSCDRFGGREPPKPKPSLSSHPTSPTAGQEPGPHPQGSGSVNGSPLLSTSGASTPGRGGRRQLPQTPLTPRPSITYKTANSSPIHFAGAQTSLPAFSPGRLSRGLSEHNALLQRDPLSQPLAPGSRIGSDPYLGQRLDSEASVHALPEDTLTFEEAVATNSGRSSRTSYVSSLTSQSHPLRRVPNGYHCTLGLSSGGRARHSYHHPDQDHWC
T2 sequence (Q02410 whole entry): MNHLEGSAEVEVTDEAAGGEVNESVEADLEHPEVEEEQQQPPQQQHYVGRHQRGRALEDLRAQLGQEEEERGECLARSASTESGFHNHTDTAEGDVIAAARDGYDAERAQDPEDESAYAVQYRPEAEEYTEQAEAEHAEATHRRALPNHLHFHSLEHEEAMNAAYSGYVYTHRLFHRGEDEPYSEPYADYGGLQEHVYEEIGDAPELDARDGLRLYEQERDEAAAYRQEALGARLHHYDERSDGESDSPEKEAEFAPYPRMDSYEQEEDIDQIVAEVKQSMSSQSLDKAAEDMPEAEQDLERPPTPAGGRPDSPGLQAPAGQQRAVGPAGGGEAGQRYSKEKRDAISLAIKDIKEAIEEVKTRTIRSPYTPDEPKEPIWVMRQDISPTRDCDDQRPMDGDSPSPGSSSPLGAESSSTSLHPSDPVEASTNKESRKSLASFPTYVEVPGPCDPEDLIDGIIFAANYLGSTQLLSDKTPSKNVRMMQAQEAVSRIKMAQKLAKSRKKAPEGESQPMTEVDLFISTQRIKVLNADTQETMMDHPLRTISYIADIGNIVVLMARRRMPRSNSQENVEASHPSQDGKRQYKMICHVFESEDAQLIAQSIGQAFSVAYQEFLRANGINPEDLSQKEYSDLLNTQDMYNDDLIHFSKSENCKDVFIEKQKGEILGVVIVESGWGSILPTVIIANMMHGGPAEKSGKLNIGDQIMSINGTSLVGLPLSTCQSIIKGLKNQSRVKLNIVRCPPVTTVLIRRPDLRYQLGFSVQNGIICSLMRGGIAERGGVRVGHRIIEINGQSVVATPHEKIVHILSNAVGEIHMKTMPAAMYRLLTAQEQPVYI
The target in assay [24] is T2, Voltage-gated N-type calcium channel alpha-1B subunit/Amyloid beta A4 precursor protein-binding family A member 1. Briefly: disruptors of Mint-PDZ/N-type channel peptide interaction – biochemical, HTRF, SAR follow-up (AID 2489). The class given is functional.
The subject of assay [25] is BJ. Briefly: cytotoxicity toward BJ-TERT-LT-ST fibroblasts, dose response, cell-based, RAS-independent, luminescence (AID 1935).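 Further: BJ fibroblasts immortalized with TERT plus LT and ST oncogenes.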 The class given is functional. The note with it: Homo sapiens.
Assay [26] relates to BJ. The assay can be described thus: cytotoxicity toward BJ-TERT fibroblasts, dose response, cell-based, RAS-independent, luminescence (AID 1933). The class given is functional. To be noted: Homo sapiens.
In assay [27] the target is Delta-type opioid receptor (Homo sapiens, UniProt P41143). Briefly: Counterscreen for agonists of heterodimerization of the mu 1 (OPRM1) and delta 1 (OPRD1) opioid receptors: Luminescence-based cell-based high throughput dose response assay to identify agonists of OPRD1 homodimerization. [Related pubchem assays (depositor defined):AID504326, AID504355, AID504692, AID504904, AID504905]. The class given is functional.

Assay [28] has as its target 5-hydroxytryptamine receptor 5A (Homo sapiens, UniProt P47898). Briefly: Counterscreen for agonists of OPRM1-OPRD1 heterodimerization: luminescence-based cell-based high throughput dose response assay to identify agonists of 5-hydroxytryptamine (serotonin) 5A receptor (HTR5A). [Related pubchem assays (depositor defined):AID504326, AID504355, AID504692, AID504904, AID504905]. The class given is functional.

The target in assay [29] is Mu-type opioid receptor (Homo sapiens, UniProt P35372). Briefly: Counterscreen for agonists of heterodimerization of the mu 1 (OPRM1) and delta 1 (OPRD1) opioid receptors: Luminescence-based cell-based high throughput dose response assay to identify agonists of OPRM1 homodimerization. It counts as functional.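 Further: U2OS cells expressing OPRM1 and beta-arrestin as split beta-galactosidase partners.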
Sequence of Mu-type opioid receptor (P35372 whole entry): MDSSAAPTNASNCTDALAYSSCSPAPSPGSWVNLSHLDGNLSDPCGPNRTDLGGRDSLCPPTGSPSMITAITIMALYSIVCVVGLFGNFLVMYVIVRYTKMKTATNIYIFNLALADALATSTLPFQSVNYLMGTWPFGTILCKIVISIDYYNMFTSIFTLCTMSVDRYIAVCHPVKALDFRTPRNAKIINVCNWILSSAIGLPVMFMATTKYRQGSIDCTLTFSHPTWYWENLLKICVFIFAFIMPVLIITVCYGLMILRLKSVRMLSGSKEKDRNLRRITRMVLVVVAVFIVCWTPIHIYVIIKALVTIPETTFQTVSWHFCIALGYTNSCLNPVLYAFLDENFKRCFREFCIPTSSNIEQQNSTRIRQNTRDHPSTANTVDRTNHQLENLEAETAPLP

The source made the active and inactive calls.

For orientation: EC50 means the concentration that produces a half-maximal response. What is called IC50 is the concentration needed to halve the response being measured. By AC50 is commonly meant the midpoint of the concentration-response curve, whichever way the signal moves.

Sequence of SUMO E1/E2 (Q9UBE0 whole entry): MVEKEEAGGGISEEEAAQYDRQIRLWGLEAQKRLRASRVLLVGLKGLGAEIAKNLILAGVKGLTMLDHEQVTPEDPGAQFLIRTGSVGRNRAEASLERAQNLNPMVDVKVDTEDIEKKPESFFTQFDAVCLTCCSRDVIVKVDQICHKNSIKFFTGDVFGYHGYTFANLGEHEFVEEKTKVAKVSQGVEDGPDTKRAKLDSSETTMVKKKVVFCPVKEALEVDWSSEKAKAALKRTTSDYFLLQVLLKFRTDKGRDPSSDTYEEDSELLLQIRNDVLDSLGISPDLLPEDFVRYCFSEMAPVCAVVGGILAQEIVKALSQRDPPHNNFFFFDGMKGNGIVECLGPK
Sequence of SUMO E1/E2 (Q9UBT2 whole entry): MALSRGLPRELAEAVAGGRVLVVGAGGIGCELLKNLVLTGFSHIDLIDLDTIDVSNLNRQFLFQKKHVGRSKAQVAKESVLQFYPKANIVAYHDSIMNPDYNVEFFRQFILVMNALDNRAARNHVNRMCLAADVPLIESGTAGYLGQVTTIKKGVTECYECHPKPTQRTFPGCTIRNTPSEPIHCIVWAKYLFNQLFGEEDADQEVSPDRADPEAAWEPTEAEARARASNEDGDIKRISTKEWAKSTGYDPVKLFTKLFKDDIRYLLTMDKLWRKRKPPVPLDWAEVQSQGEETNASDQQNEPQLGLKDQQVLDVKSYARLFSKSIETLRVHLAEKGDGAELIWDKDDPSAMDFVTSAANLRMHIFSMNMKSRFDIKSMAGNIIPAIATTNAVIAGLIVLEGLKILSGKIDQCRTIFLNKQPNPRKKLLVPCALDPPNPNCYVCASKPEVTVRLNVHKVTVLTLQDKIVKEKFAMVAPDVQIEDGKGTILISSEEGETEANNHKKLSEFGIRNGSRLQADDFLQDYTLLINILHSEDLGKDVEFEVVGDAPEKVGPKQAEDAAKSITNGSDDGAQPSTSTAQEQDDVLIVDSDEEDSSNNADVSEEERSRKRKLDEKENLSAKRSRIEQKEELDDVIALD
Sequence of SUMO E1/E2 (P63279 whole entry): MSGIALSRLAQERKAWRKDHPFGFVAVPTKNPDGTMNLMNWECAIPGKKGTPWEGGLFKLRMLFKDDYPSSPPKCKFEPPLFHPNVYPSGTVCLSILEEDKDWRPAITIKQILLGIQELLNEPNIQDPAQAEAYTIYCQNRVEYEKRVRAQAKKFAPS
Sequence of 5-hydroxytryptamine receptor 5A (P47898 whole entry): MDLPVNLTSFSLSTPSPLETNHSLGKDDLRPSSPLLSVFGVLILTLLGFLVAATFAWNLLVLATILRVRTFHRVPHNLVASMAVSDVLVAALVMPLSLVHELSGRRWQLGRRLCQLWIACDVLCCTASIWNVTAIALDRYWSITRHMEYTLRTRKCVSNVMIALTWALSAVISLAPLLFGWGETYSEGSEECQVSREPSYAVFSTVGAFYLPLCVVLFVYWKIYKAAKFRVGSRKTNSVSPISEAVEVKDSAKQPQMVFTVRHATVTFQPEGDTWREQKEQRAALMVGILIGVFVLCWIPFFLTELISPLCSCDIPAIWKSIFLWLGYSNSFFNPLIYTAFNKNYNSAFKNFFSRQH

As to `Cc1c(C(=O)Oc2cc(N)n(S(C)(=O)=O)n2)cccc1[N+](=O)[O-]`, the EC50 was 5.59 µM (active) in assay [1], > 99 µM (inactive) in [2], 6.63 µM (active) in [4] and > 99 µM (inactive) in [5]. Moreover, the CC50 in [3] is > 99 µM (inactive).

In the case of `CC1CC2=C(CC1/C=N/NC(N)=S)C(C)(C)CCC2` (configuration not stated), the EC50 in assay [6] was > 40 µM (inactive). The IC50 in [7] is on record as 22.6 µM (not active). The CC50 in assay [8] is 20.9 µM (active).

As for `C[C@@H](CN1CC=C(n2c(=O)[nH]c3ccccc32)CC1)NC(=O)[C@H]1C[C@@H]1c1ccccc1`, the concentration for half-maximal inhibition (IC50) in assay [9] is 0.48 µM (active); in [10], 20 µM (active).

Take `CCOc1ccc(C2=Nn3c(nnc3-c3ccccc3OC)SC2)cc1`: the concentration giving a half-maximal response (EC50) in [11] is < 0.1 µM (active); in assay [12], 0.04 µM (active); in [13], 0.034 µM (active); in assay [14], < 0.12 µM (active); in assay [15] it was < 0.1 µM (active); in assay [16] it was < 0.104 µM (active). In addition, the EC50 is 0.046 µM (active) in assay [17], < 0.1 µM (active) in assay [18] and < 0.12 µM (active) in assay [21]. Further, the concentration at half-maximal activity (AC50) was 0.317 µM (active) in assay [19] and 63 µM (active) in assay [20].

`COc1ccc(CNC(=O)c2cc(-c3ccco3)nc3ccccc23)cc1`: the figures for the IC50 in assay [22], in assay [23] and in assay [24] were 2.61 µM (active), 20.3 µM (active) and > 56.8 µM (inactive), respectively.

In the case of `CC(=O)c1ccc(NC(=O)N2CCc3ccccc3C2)cc1`, the half-maximal effective concentration (EC50) was > 150 µM (not active) in assay [14]; 6.04 µM (active) in [16]; > 150 µM (not active) in assay [25]; > 150 µM (not active) in assay [26]; 10.5 µM (active) in assay [21].

For the compound `Cc1ccc(C(=O)N[C@@H](C)CN2CCC(n3c(=O)[nH]c4cc(Br)ccc43)CC2)cc1`, the results for the half-maximal inhibitory concentration (IC50) in assay [9] and in [10] were 0.007 µM (active) and 2.8 µM (active), respectively.

On to `COc1ccc(C2C(C#N)=C(N)N(c3sc4c(c3C#N)CCCC4)C3=C2C(=O)CC(C)(C)C3)cc1` (configuration not stated), for which the EC50 in assay [27] is 11.6 µM (inactive); in [28] it was > 92.5 µM (inactive); in [29], > 92.5 µM (inactive).

With `O=C1NC[C@H](c2ccccc2)OC(=O)[C@@H](Cc2ccc(F)cc2)CC/C=C/C[C@@H]1CC(=O)N(CCO)Cc1ccccc1`, the EC50 in [6] was 19.5 µM (active). The IC50 in [7] is 33.7 µM (not active).

With `CC(CC(=O)N(CCC1=CCCCC1)c1c(N)n(Cc2ccccc2)c(=O)[nH]c1=O)c1ccccc1` (configuration not stated), the EC50 in assay [27], in [28] and in assay [29] was > 92.5 µM (inactive) throughout.

Turning to `COc1ccccc1CCNC(=O)COC(=O)c1cc(-c2ccco2)nc2ccccc12`, the IC50 in assay [22] was 25.3 µM (active); in assay [23], 17.4 µM (active); in assay [24], 28.5 µM (active).

For the origin of these results see ChEMBL document CHEMBL1201862, “PubChem BioAssay data set” (2004).
